Here are results for 14 compounds from patent US20030095958A1, “Inhibitors of bace” (priority 2001, published 2003).

Chain of BACE (P56817 46-501): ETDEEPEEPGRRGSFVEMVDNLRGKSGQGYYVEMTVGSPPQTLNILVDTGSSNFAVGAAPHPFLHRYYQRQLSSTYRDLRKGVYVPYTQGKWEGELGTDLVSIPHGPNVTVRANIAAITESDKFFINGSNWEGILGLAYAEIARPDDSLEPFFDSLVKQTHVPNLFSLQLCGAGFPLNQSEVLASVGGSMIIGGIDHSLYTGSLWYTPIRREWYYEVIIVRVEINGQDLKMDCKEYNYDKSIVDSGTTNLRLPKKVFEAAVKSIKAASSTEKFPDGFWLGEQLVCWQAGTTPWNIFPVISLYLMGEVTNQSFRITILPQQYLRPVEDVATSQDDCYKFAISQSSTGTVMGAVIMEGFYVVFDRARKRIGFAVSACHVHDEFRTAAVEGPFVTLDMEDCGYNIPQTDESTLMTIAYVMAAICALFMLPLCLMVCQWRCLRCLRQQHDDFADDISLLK

For the assay, the target named is BACE (Homo sapiens, UniProt P56817). Kind of assay: Ki Determination for the Inhibition of BACE (FS-1 peptide fluorescence cleavage assay). The assay is classed as biochemical. The following applies: apparent Ki; 50 nM BACE, 10 μM FS-1 substrate, 0.1M sodium acetate pH 4.5. Put shortly:
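Apparent Ki values derive from fitting fluorescence progress data (355 nm excitation, 495 nm emission) of FS-1 peptide cleavage to an integrated competitive tight-binding model. Reactions held 50 nM BACE, 10 μM substrate and inhibitor in 2% DMSO, pH 4.5 acetate buffer, with a 15 min enzyme-compound preincubation at room temperature.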
As to `Cc1cc(N2CCNCC2)c(NC(=O)c2cccc3ccccc23)cc1Br` [Compound 112, Naphthalene-1-carboxylic acid (5-bromo-4-methyl-2-piperazin-1-yl-phenyl)-amide], the Ki is above 30 µM. As for `COC(=O)c1cc(OCc2ccc(COc3ccccc3C(F)(F)F)cc2C2=CCNCC2)cc(C(=O)OC)c1` [Compound 330, 5-[2-(1,2,3,6-Tetrahydro-pyridin-4-yl)-4-(2-trifluoromethyl-phenoxymethyl)-benzyloxy]-isophthalic acid dimethyl ester], the figure is below 3 µM; as for `Nc1cccc2c(NC(=O)c3ccc(COc4ccccc4C(F)(F)F)cc3C3=CCNCC3)cccc12` [Compound 310, N-(5-Amino-naphthalen-1-yl)-2-(1,2,3,6-tetrahydro-pyridin-4-yl)-4-(2-trifluoromethyl-phenoxymethyl)-benzamide], 3 to 30 µM. As for `FC(F)(F)c1cccc(COc2ccc3c(c2)c2c(n3Cc3cccc4ccccc34)CNCC2)c1` [Compound 509, 9-Naphthalen-1-ylmethyl-6-(3-trifluoromethyl-benzyloxy)-2,3,4,9-tetrahydro-1H-b-carboline], the figure is below 3 µM. Turning to `COC(=O)c1cccc(-c2cc(COc3ccccc3C(F)(F)F)c(C3=CCNCC3)cc2COc2ccccc2C(F)(F)F)c1` [Compound 368, 4′-(1,2,3,6-Tetrahydro-pyridin-4-yl)-2′,5′-bis-(2-trifluoromethyl-phenoxymethyl)-biphenyl-3-carboxylic acid methyl ester], the Ki is below 3 µM. `O=S(=O)(Nc1cc(-c2ccc(Cl)c(Cl)c2)ccc1N1CCNCC1)c1ccc(-c2cccc(Cl)c2)cc1` [Compound 180, 3′-Chloro-biphenyl-4-sulfonic acid (3′,4′-dichloro-4-piperazin-1-yl-biphenyl-3-yl)-amide]: the Ki lay within 3 to 30 µM.

Regarding `O=C(NC(Cc1ccccc1)C(=O)N1CCCC1C(=O)NCC1CNCCC1c1ccc(COc2ccccc2C(F)(F)F)cc1)OCc1ccccc1` (centres unmarked) [Compound 223, {1-Benzyl-2-oxo-2-[2-({4-[4-(2-trifluoromethyl-phenoxymethyl)-phenyl]-piperidin-3-ylmethyl}-carbamoyl)-pyrrolidin-1-yl]-ethyl}-carbamic acid benzyl ester], the Ki lay in the range of 3 to 30 µM.

With `C1=C(c2cc(COc3ccc4ccccc4c3)c(-c3ccccc3)cc2COc2ccc3ccccc3c2)CCNC1` [Compound 307, 4-[2,5-Bis-(naphthalen-2-yloxymethyl)-biphenyl-4-yl]-1,2,3,6-tetrahydro-pyridine], the Ki is below 3 µM.

As for `O=C(NCC1CNCCC1c1ccc(COc2ccccc2C(F)(F)F)cc1)c1cccc2ccccc12` (centres unmarked) [Compound 221, Naphthalene-1-carboxylic acid {4-[4-(2-trifluoromethyl-phenoxymethyl)-phenyl]-piperidin-3-ylmethyl}-amide], the Ki lay within 3 to 30 µM. For `FC(F)(F)c1ccccc1OCc1cc(-c2ccc[nH]2)c(COc2ccccc2C(F)(F)F)cc1C1=CCNCC1` [Compound 358, 4-[4-(1H-Pyrrol-2-yl)-2,5-bis-(2-trifluoromethyl-phenoxymethyl)-phenyl]-1,2,3,6-tetrahydro-pyridine] the value was below 3 µM.

For `FC(F)(F)c1ccccc1OCc1ccc(COc2cccc3ccccc23)c(C2=CCNCC2)c1` [Compound 320, 4-[2-(Naphthalen-1-yloxymethyl)-5-(2-trifluoromethyl-phenoxymethyl)-phenyl]-1,2,3,6-tetrahydro-pyridine], the Ki is 3 to 30 µM. For `FC(F)Oc1ccccc1COc1ccc2c(c1)c1c(n2Cc2ccc3ccccc3c2)CNCC1` [Compound 516, 6-(2-Difluoromethoxy-benzyloxy)-9-naphthalen-2-ylmethyl-2,3,4,9-tetrahydro-1H-b-carboline] the value was below 3 µM. For `O=C(Nc1cc(-c2ccc(Cl)cc2)ccc1N1CCNCC1)c1cccc2ccccc12` [Compound 121, Naphthalene-1-carboxylic acid (4′-chloro-4-piperazin-1-yl-biphenyl-3-yl)-amide] the value was 3 to 30 µM. For `OC1CNCC(COc2ccc3ccccc3c2)C1(O)c1ccc(-c2ccccc2)cc1` (centres unmarked) [Compound 412] the value was 3 to 30 µM.
